Like-named read-outs stand apart in the source and are kept apart here.
Columns and labels:
BRAF V600E = assay: Pharmacodynamics of BRAF protein degradation in inoculated CNS tumors (Example 12); type: in vivo, human A375 CNS xenograft in mice; conditions: CNS tumor-bearing mice, after administration, versus encorafenib, FIG. 51
Procedure: FIG. 51 is a plot showing the pharmacodynamics of BRAF protein degradation in the inoculated CNS tumors. […] The experiment was conducted as described in Example 12.

[1] = Pharmacokinetics in female BALB/c nude mice bearing A375 xenografts, 1 day dosing (PK and PD study): plasma, tumor and brain concentrations, AUC; type: in vivo
From the text: The concentrations of Dabrafenib, Compound 26 and Compound 141 in the treatment of female BALB/c nude mice bearing A375 xenografts are shown in Table 62-Table 72 and FIG. 52-FIG. 73.

[2] = 0.75 mg/kg p.o. BID × 1 day, post 2nd dose, 48 h, BQL: below the lower limit of quantitation
[3] = 1 mg/kg p.o. TID × 1 day, post 3rd dose, 48 h, BQL: below the lower limit of quantitation
[4] = Compound 141, 1.5 mg/kg p.o. BID × 1 day, post 2nd dose, 36 h, BQL: below the lower limit of quantitation
[5] = Compound 141, 1.5 mg/kg p.o. BID × 1 day, post 2nd dose, 48 h, BQL: below the lower limit of quantitation
[6] = mouse, brain, po, 0.75 mg/kg, 0.75 mg/kg p.o. BID × 1 day, post 2nd dose, read-out: Mean Concentration in Brain ± SEM
[7] = mouse, brain, po, 1 mg/kg, 1 mg/kg p.o. TID × 1 day, post 3rd dose, read-out: Mean Concentration in Brain ± SEM
[8] = mouse, brain, po, 1.5 mg/kg, Compound 141, 1.5 mg/kg p.o. BID × 1 day, post 2nd dose, read-out: Mean Concentration in Brain ± SEM
[9] = mouse, brain, po, 3 mg/kg, 3 mg/kg p.o. QD × 1 day, read-out: Mean Concentration in Brain ± SEM
[10] = mouse, brain, po, 5 mg/kg, 5 mg/kg p.o. BID × 1 day, post 2nd dose, read-out: Mean Concentration in Brain ± SEM
[11] = mouse, plasma, po, 0.75 mg/kg, 0.75 mg/kg p.o. BID × 1 day, post 1st dose, read-out: Mean Concentration in Plasma ± SEM
[12] = mouse, plasma, po, 0.75 mg/kg, 0.75 mg/kg p.o. BID × 1 day, post 2nd dose, read-out: Mean Concentration in Plasma ± SEM
[13] = mouse, plasma, po, 1 mg/kg, 1 mg/kg p.o. TID × 1 day, post 1st dose, read-out: Mean Concentration in Plasma ± SEM
[14] = mouse, plasma, po, 1 mg/kg, 1 mg/kg p.o. TID × 1 day, post 2nd dose, read-out: Mean Concentration in Plasma ± SEM
[15] = mouse, plasma, po, 1 mg/kg, 1 mg/kg p.o. TID × 1 day, post 3rd dose, read-out: Mean Concentration in Plasma ± SEM

In the case of CCN(C)S(=O)(=O)Nc1ccc(F)c(Oc2ccc3ncn(C4CC5(CCN(C6CC7(C6)CN(c6cc8c(cc6F)c(N6CCC(=O)NC6=O)nn8C)C7)CC5)C4)c(=O)c3c2)c1C#N (stereo not shown) [Compound 141, 6-[2-cyano-3-[[ethyl(methyl)sulfamoyl]amino]-6-fluoro-phenoxy]-3-[7-[2-[3-(2,4-dioxohexahydropyrimidin-1-yl)-5-fluoro-1-methyl-indazol-6-yl]-2-azaspiro[3.3]heptan-6-yl]-7-azaspiro[3.5]nonan-2-yl]-4-oxo-quinazoline], the “BRAF V600E levels in the brain tumor compared with encorafenib” value (BRAF V600E) is reported as “much lower”, the “Mean Concentration in Brain ± SEM” value ([1]; 0.75 mg/kg p.o. BID × 1 day, post 2nd dose, 24 h, BQL: below the lower limit of quantitation) is reported as “BQL^a” and the “Mean Concentration in Brain ± SEM” value [1, 2] is reported as “BQL”. For the same molecule, the “Mean Concentration in Tumor ± SEM” value [1, 2] was “BQL”, the “Mean Concentration in Brain ± SEM” value ([1]; 1 mg/kg p.o. TID × 1 day, post 3rd dose, 24 h, BQL: below the lower limit of quantitation) was “BQL^a” and the “Mean Concentration in Brain ± SEM” value [1, 3] was “BQL”. The “Mean Concentration in Plasma ± SEM” value [1, 3] was “BQL”, the “Mean Concentration in Plasma ± SEM” value ([1]; 3 mg/kg p.o. QD × 1 day, 48 h, BQL: below the lower limit of quantitation) was “BQL^a” and the “Mean Concentration in Brain ± SEM” value ([1]; 5 mg/kg p.o. BID × 1 day, post 2nd dose, 24 h, BQL: below the lower limit of quantitation) was “BQL^a”. The “Mean Concentration in Brain ± SEM” value ([1]; Compound 141, 1.5 mg/kg p.o. BID × 1 day, post 2nd dose, 24 h, BQL: below the lower limit of quantitation) was “BQL^a”, the “Mean Concentration in Brain ± SEM” value [1, 4] was “BQL” and the “Mean Concentration in Plasma ± SEM” value [1, 4] was “BQL”. For the same molecule, the “Mean Concentration in Brain ± SEM” value [1, 5] was “BQL”, the “Mean Concentration in Plasma ± SEM” value [1, 5] was “BQL” and the concentration at 1 h [1, 6] was 26.7 ± 2.39 ng/g. It also gave a concentration at 4 h [1, 6] of 10.2 ± 1.3 ng/g, a concentration at 10 h [1, 6] of 6.61 ± 2 ng/g and a concentration at 1 h [1, 7] of 22 ± 3.26 ng/g. For the same molecule, the concentration at 4 h [1, 7] was 17.9 ± 3.94 ng/g, the concentration at 10 h [1, 7] was 14.6 ± 3.36 ng/g and the concentration at 0.25 h [1, 8] was 11.2 ± 1.24 ng/g. For the same molecule, the concentration at 0.5 h [1, 8] was 25.5 ± 2.96 ng/g, the concentration at 1 h [1, 8] was 44.1 ± 5.96 ng/g and the concentration at 2 h [1, 8] was 39.3 ± 0.318 ng/g. The concentration at 4 h [1, 8] was 23.5 ± 4.95 ng/g, the concentration at 10 h [1, 8] was 3.51 ± 1.17 ng/g and the concentration at 1 h [1, 9] was 70.5 ± 4.29 ng/g. For the same molecule, the concentration at 4 h [1, 9] was 37.6 ± 9.11 ng/g, the concentration at 10 h [1, 9] was 11 ± 1.97 ng/g and the concentration at 24 h ([1]; mouse, brain, po, 3 mg/kg, 3 mg/kg p.o. QD × 1 day, 24 h, read-out: Mean Concentration in Brain ± SEM) was 3.31 ng/g. The concentration at 48 h ([1]; mouse, brain, po, 3 mg/kg, 3 mg/kg p.o. QD × 1 day, 48 h, read-out: Mean Concentration in Brain ± SEM) was 1.79 ng/g, the concentration at 1 h [1, 10] was 126 ± 6.12 ng/g and the concentration at 4 h [1, 10] was 52.9 ± 12.8 ng/g. For the same molecule, the concentration at 10 h [1, 10] was 13.1 ± 2.79 ng/g, the concentration at 48 h ([1]; mouse, brain, po, 5 mg/kg, 5 mg/kg p.o. BID × 1 day, post 2nd dose, 48 h, read-out: Mean Concentration in Brain ± SEM) was 4 ng/g and the concentration at 0.25 h [1, 11] was 340 ± 19 ng/mL. For the same molecule, the concentration at 0.5 h [1, 11] was 832 ± 61.1 ng/mL, the concentration at 1 h [1, 11] was 1070 ± 94.7 ng/mL and the concentration at 2 h [1, 11] was 972 ± 13.5 ng/mL. It also gave a concentration at 4 h [1, 11] of 491 ± 20.2 ng/mL, a concentration at 8 h [1, 11] of 66.3 ± 5.93 ng/mL and a concentration at 12 h ([1]; mouse, plasma, po, 0.75 mg/kg, 0.75 mg/kg p.o. BID × 1 day, post 1st dose, 12 h, read-out: Mean Concentration in Plasma ± SEM) of 26.5 ± 4.92 ng/mL. For the same molecule, the concentration at 0.25 h [1, 12] was 297 ± 13.2 ng/mL, the concentration at 0.5 h [1, 12] was 502 ± 84.1 ng/mL and the concentration at 1 h [1, 12] was 778 ± 59.4 ng/mL. The concentration at 2 h [1, 12] was 818 ± 118 ng/mL, the concentration at 4 h [1, 12] was 247 ± 24.5 ng/mL and the concentration at 10 h [1, 12] was 111 ± 18.4 ng/mL. It also gave a concentration at 24 h ([1]; mouse, plasma, po, 0.75 mg/kg, 0.75 mg/kg p.o. BID × 1 day, post 2nd dose, 24 h, read-out: Mean Concentration in Plasma ± SEM) of 1.09 ± 0.203 ng/mL, a concentration at 36 h ([1]; mouse, plasma, po, 0.75 mg/kg, 0.75 mg/kg p.o. BID × 1 day, post 2nd dose, 36 h, read-out: Mean Concentration in Plasma ± SEM) of 0.764 ng/mL and a concentration at 48 h ([1]; mouse, plasma, po, 0.75 mg/kg, 0.75 mg/kg p.o. BID × 1 day, post 2nd dose, 48 h, read-out: Mean Concentration in Plasma ± SEM) of 4.96 ng/mL. The concentration at 0.25 h [1, 13] was 438 ± 25.4 ng/mL, the concentration at 0.5 h [1, 13] was 836 ± 10.8 ng/mL and the concentration at 1 h [1, 13] was 1130 ± 180 ng/mL. For the same molecule, the concentration at 2 h [1, 13] was 1000 ± 55.2 ng/mL, the concentration at 4 h [1, 13] was 699 ± 129 ng/mL and the concentration at 8 h [1, 13] was 242 ± 30.4 ng/mL. It also gave a concentration at 0.25 h [1, 14] of 334 ± 54.7 ng/mL, a concentration at 2 h [1, 14] of 879 ± 74.6 ng/mL and a concentration at 8 h [1, 14] of 218 ± 16.3 ng/mL. The concentration at 0.25 h [1, 15] was 346 ± 65.5 ng/mL, the concentration at 0.5 h [1, 15] was 694 ± 54.4 ng/mL and the concentration at 1 h [1, 15] was 664 ± 72 ng/mL. For the same molecule, the concentration at 2 h [1, 15] was 1600 ± 124 ng/mL, the concentration at 4 h [1, 15] was 563 ± 173 ng/mL and the concentration at 10 h [1, 15] was 415 ± 74.4 ng/mL. The concentration at 24 h ([1]; mouse, plasma, po, 1 mg/kg, 1 mg/kg p.o. TID × 1 day, post 3rd dose, 24 h, read-out: Mean Concentration in Plasma ± SEM) was 10.5 ± 5.67 ng/mL.
